Test results: ChEMBL document CHEMBL2073981, “Differential regulation of multidrug resistance-associated protein 2 (MRP2) and cytochromes P450 2B1/2 and 3A1/2 in phenobarbital-treated hepatocytes” (Biochem Pharmacol, 2002)

What was measured:
[1] = target: T1, ATP-binding cassette sub-family C member 2 (Homo sapiens, UniProt Q92887); assay: (§1) TP_TRANSPORTER: Northern blot in vitro, primary hepatocytes; assay type: functional, cell-based, Hepatocyte
[2] = target: T2, ATP-binding cassette sub-family C member 2 (Rattus norvegicus, UniProt Q63120); assay: as §1; assay type: functional, cell-based, Hepatocyte
T2 sequence (Q63120 whole entry): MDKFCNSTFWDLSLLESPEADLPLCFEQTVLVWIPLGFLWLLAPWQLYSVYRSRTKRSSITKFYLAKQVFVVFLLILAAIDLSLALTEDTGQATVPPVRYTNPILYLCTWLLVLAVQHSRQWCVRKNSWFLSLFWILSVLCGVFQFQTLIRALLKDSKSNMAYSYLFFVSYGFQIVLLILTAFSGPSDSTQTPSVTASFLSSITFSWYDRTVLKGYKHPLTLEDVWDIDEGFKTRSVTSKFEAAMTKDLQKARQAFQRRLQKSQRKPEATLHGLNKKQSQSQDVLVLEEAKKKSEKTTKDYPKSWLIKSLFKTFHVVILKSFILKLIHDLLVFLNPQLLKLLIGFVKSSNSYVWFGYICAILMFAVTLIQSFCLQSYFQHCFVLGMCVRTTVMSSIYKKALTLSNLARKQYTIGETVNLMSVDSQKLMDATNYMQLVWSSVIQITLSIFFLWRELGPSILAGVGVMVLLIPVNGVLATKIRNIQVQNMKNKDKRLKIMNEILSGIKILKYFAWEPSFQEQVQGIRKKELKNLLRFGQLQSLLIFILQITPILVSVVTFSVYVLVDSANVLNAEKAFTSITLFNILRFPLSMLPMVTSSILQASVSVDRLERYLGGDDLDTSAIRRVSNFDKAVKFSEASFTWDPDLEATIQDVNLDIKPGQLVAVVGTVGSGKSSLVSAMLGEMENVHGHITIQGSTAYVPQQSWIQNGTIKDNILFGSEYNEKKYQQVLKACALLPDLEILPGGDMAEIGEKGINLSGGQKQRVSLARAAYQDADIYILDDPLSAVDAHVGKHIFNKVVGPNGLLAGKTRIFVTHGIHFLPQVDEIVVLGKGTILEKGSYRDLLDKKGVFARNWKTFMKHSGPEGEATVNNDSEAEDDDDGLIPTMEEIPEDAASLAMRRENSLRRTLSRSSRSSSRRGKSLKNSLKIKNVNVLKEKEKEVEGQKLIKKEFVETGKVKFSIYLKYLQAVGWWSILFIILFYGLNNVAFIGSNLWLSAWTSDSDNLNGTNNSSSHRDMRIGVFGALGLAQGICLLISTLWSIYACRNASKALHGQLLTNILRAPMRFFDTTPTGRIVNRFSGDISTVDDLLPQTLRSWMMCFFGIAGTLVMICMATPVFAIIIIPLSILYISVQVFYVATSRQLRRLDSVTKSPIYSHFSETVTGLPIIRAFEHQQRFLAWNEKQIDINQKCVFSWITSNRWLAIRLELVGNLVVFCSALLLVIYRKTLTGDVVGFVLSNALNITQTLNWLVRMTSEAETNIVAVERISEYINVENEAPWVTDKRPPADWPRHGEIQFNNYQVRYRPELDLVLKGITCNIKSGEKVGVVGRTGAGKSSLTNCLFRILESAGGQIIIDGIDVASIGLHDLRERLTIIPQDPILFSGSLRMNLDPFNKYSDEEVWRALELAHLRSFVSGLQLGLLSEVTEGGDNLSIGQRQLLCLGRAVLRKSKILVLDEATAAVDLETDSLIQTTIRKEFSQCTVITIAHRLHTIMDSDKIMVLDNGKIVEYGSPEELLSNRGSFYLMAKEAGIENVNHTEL

[3] = target: Multidrug resistance protein 1a (Rattus norvegicus) (UniProt Q6PSM0); assay: as §1; assay type: functional, cell-based; conditions: Hepatocyte
Chain of Multidrug resistance protein 1a (Rattus norvegicus) (Q6PSM0 as listed by the source): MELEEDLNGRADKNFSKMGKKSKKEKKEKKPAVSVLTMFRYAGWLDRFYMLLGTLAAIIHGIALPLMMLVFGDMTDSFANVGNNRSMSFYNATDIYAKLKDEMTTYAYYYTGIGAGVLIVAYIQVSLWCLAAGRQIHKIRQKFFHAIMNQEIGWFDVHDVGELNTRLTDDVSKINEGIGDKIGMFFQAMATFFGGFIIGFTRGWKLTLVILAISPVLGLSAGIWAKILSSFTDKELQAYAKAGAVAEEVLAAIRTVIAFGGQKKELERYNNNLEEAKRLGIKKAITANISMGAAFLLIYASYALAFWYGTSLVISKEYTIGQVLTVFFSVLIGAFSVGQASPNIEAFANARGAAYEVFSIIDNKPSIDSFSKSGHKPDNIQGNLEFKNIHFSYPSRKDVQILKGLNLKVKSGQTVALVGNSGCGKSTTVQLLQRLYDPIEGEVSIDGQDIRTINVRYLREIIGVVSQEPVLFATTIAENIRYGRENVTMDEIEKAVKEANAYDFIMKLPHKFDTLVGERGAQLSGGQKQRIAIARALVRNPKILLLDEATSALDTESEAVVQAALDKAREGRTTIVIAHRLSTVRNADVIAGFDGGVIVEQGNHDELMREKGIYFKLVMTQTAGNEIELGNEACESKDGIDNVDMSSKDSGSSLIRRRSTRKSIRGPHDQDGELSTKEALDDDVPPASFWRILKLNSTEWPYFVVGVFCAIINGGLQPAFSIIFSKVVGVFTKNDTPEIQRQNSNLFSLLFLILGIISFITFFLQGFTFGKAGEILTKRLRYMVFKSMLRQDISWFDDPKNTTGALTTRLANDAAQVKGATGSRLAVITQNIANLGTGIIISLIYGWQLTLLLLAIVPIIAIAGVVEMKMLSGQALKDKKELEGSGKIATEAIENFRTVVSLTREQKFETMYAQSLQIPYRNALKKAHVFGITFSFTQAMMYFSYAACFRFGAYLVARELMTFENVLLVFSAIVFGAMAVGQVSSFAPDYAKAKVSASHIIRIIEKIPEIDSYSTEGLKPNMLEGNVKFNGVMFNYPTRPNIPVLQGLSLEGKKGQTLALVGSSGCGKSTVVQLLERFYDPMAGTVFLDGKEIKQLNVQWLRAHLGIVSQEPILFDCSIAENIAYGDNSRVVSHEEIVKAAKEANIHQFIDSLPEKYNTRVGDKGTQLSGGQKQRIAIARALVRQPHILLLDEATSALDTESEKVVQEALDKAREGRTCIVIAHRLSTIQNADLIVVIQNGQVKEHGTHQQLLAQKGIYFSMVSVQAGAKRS

[4] = target: T1, ATP-binding cassette sub-family C member 2; assay: (§2) TP_TRANSPORTER: Western in vitro, primary hepatocytes; assay type: functional, cell-based, Hepatocyte
[5] = target: T2, ATP-binding cassette sub-family C member 2; assay: as §2; assay type: functional, cell-based, Hepatocyte
[6] = target: T2, ATP-binding cassette sub-family C member 2; assay: TP_TRANSPORTER: Northern blot in vivo SD rat, liver; assay type: functional, organism-based, Sprague-Dawley

T1 sequence (Q92887 whole entry): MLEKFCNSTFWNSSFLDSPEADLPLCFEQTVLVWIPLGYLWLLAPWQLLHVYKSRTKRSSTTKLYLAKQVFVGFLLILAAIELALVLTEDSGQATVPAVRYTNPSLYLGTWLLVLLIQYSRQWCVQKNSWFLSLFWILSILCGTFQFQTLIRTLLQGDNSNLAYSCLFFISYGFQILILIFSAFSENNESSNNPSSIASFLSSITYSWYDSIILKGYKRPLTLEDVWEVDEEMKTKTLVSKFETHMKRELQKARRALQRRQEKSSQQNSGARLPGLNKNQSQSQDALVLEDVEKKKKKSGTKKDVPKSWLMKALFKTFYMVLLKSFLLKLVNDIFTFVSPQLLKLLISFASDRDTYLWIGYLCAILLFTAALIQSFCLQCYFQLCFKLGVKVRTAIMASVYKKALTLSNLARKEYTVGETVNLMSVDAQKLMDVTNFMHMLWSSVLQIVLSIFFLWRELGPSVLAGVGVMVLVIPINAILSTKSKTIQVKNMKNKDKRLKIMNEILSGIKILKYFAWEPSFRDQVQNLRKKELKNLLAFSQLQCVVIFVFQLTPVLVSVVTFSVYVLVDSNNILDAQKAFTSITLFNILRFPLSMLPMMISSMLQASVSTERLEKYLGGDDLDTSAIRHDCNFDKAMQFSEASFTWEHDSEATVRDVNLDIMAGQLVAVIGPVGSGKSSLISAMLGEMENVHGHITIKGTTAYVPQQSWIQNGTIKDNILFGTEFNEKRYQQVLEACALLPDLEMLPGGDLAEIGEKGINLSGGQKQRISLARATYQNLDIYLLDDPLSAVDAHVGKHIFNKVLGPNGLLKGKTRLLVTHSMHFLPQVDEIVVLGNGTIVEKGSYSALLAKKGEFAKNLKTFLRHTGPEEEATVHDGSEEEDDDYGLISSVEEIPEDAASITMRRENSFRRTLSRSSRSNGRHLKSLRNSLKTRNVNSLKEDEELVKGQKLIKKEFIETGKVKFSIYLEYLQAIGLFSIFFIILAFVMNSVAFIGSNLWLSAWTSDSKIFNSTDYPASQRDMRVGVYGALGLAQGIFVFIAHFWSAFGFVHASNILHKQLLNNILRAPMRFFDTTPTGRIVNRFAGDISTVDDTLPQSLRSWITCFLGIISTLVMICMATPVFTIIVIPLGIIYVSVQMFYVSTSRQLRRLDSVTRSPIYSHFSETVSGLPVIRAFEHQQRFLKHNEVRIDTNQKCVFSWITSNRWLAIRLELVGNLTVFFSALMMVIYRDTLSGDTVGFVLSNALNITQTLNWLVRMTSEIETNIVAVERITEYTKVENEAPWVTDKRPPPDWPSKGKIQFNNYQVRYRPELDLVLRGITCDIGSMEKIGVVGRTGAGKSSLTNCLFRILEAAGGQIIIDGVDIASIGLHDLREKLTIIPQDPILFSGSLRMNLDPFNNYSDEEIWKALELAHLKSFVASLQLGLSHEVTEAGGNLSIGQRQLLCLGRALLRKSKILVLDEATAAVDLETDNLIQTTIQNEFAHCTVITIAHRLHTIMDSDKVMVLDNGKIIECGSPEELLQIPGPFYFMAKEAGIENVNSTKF

In the case of `CCC1(c2ccccc2)C(=O)NC(=O)NC1=O` [PHENOBARBITAL], the Activity [1] is reported as “inducer [+]”, the Activity [2] is reported as “inducer [+]” and the Activity [3] is reported as “is not an inducer [-]”. For the same compound, the Activity [4] was “inducer [+]”, the Activity [5] was “inducer [+]” and the Activity [6] was “is not an inducer [-]”.
